Results on 3 molecules are retold here after US20180071281A1, “TREATING CHRONIC RHINOSINUSITIS” (Gerbe Labs Inc., priority 2016, published 2018).

For data set [1] the following is noted: cited from earlier work; for systemic absorption: used topically.
Data set [2] concerns chronic rhinosinusitis. Briefly: Case studies: patients with chronic rhinosinusitis treated with nebulized formulation. The conditions noted are these: particularly in combination with the compositions and formulations; vancomycin in cases where MRSA is present. Type of data set: in vivo, human. An excerpt:
In all of the following studies, the skin testing of Example 1 was used to identify the inhalant antigen or antigens responsible for triggering systemic inflammatory symptoms and the localized inflammatory sinus symptoms. The chronic rhinosinusitis of the patients was all successfully treated. Moreover, the patients also experienced resolution of systemic inflammatory symptoms.
Each of the patients avoided additional exposure to the fungal spores that were identified by the skin test. The patients ostia was dilated, and the formulation was administered with a nebulizer. Additionally, systemic anti-fungal medication directed toward the specific fungi was administered for 4-6 weeks, followed by intermittent nebulization with mometasone and 2% mupirocin powder, which has both anti-fungal and anti-bacterial properties. These treatments were administered every other day to every third day for several months with C-reactive protein (CRP} levels checked every 4-6 weeks to monitor change.
Patient 1 is a retired nurse who presented with chronic fatigue, chronic headaches, facial pain, and a sleep disorder characterized by Rapid Eye Movement (REM) sleep deprivation. The patient was a two pack/day smoker. […] The patient was treated with a formulation of 125 mg tobramycin, […]

The subject of data set [3] is S. aureus. Nature of the data set: Culture from Patient 7, sensitivity of bacteria. Type of data set: cell-based. The conditions noted are these: Patient 7 culture. The source says: The patient underwent the standard workup for CRS, sleep disorder, and nasal obstruction, plus our diagnostic skin test and sinus CT scan.
Data set [4] relates to gram negative and gram positive organisms. To be noted: cited from earlier work.

`C[C@@H]1C[C@H]2[C@@H]3CCC4=CC(=O)C=C[C@]4(C)[C@@]3(Cl)[C@@H](O)C[C@]2(C)[C@@]1(OC(=O)c1ccco1)C(=O)CCl` [Mometasone furoate]: the safety entry in data set [1] (topical, nasal cavity and sinuses, approved for children under the age of 3) is on record as “very safe”. For the same molecule, the systemic absorption result in data set [1] is reported as “very little systemic absorption”.

As to `CN[C@H](CC(C)C)C(=O)N[C@H]1C(=O)N[C@@H](CC(N)=O)C(=O)N[C@H]2C(=O)N[C@H]3C(=O)N[C@H](C(=O)N[C@H](C(=O)O)c4cc(O)cc(O)c4-c4cc3ccc4O)[C@H](O)c3ccc(c(Cl)c3)Oc3cc2cc(c3O[C@@H]2O[C@H](CO)[C@@H](O)[C@H](O)[C@H]2O[C@H]2C[C@](C)(N)[C@H](O)[C@H](C)O2)Oc2ccc(cc2Cl)[C@H]1O` [vancomycin], in data set [2], the “effectiveness of the antibiotic” value was “highly effective”.

For `NC[C@H]1O[C@H](O[C@H]2[C@H](O)[C@@H](O[C@H]3O[C@H](CO)[C@@H](O)[C@H](N)[C@H]3O)[C@H](N)C[C@@H]2N)[C@H](N)C[C@@H]1O` [tobramycin], the “effectiveness of the antibiotic” value in data set [2] was “highly effective”. The “sensitivity of cultured S. aureus” value in data set [3] is reported as “sensitive”. Moreover, the oral absorption result in data set [1] (orally) is “very, very poorly absorbed”. Moreover, the systemic absorption entry in data set [1] is on record as “not absorbed systemically”. For the same molecule, the “activity against gram negative and gram positive organisms” value in data set [4] is listed as “excellent activity”.
